This note sets out measurements from PubChem BioAssay AID504555 (Johns Hopkins Ion Channel Center, 2011).

Active and inactive are the calls of the source.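 The calls were made as follows: active = dose dependent inhibition of hERG heart potassium channel current within the tested dose range; inactive = the rest.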

For one assay, the target named is Voltage-gated inwardly rectifying potassium channel KCNH2 (Homo sapiens) (UniProt Q12809). The assay can be described thus: hERG potassium channel inhibition, SAR follow-up, selectivity assay for Kir2.1 inhibitor project, CHO cells, automated electrophysiology (AID 504555). As to conditions: automated patch clamp, tail current.
Voltage-gated inwardly rectifying potassium channel KCNH2 (Homo sapiens), sequence (Q12809 whole entry, looked up): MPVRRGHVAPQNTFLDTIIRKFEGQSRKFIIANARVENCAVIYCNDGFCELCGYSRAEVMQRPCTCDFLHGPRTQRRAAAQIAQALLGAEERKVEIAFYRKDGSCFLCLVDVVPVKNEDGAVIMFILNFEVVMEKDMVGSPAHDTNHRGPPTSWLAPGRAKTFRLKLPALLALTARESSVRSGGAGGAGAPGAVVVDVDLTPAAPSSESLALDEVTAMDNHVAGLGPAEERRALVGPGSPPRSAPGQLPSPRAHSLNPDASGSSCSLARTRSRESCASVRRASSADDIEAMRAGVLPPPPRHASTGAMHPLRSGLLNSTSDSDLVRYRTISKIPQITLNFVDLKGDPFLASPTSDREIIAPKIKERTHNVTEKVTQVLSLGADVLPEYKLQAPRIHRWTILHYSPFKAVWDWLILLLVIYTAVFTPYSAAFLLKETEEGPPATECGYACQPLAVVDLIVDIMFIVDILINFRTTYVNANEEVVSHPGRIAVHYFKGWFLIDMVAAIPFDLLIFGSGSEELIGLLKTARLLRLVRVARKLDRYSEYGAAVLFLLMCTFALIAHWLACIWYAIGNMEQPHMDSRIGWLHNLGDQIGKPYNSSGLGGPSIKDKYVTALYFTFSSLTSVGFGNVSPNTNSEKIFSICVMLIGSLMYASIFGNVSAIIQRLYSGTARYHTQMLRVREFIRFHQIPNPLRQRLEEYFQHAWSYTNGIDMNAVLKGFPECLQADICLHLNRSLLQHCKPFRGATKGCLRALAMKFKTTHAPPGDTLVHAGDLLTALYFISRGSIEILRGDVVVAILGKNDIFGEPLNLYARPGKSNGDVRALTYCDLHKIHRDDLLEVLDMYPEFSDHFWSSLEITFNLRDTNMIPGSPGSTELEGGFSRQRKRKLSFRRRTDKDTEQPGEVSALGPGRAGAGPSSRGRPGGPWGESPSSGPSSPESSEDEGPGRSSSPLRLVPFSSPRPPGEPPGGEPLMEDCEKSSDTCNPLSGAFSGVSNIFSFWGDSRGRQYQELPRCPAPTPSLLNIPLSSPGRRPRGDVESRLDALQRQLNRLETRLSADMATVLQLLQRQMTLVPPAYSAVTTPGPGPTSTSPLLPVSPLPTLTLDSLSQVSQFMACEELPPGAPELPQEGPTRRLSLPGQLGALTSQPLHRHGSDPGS
Turning to `Cc1ccc(S(=O)(=O)N[C@@H](C)c2ccccc2)cc1`, the IC50 is 27.6 µM.

Turning to `c1ccc(COc2ccc(OCCCNC3CCCC3)cc2)cc1`, the IC50 is 2.19 µM.

Regarding `C[C@@H](NS(=O)(=O)c1cccc(Br)c1)c1ccccc1`, the IC50 was 17.6 µM.

As to `Cc1ccc2nc(N3CCN(CCO)CC3)nc(-c3ccccc3)c2c1`, the IC50 is 2.9 µM.

On to `Cc1ccc2nc(NCc3ccccc3)[nH]c2c1`, for which the IC50 is 13 µM.

Consider `CC(O)CNCCCOc1cccc(Oc2ccccc2)c1` (centres undefined), for which the IC50 was 6.96 µM.

`C[C@@H](NS(=O)(=O)c1ccc(Cl)cc1)c1ccccc1`: the IC50 is 19.5 µM.

`Cc1ccc(C)c(OCCCNCc2ccccc2)c1`: the IC50 was 19.3 µM.

`c1ccc(CNc2c3ccccc3nc3ccccc23)cc1`: the IC50 is 0.433 µM.

`Cc1noc(C)c1COC(=O)CCN1c2ccccc2Sc2ccccc21`: the IC50 was 29.1 µM.

Take `Cc1ccc(Nc2cc(C)nc3c(C)cccc23)cc1`: the IC50 was 2.33 µM.

On to `C[C@H](NS(=O)(=O)c1ccc(Br)cc1)c1ccccc1`, for which the half-maximal inhibitory concentration (IC50) is 17.6 µM.

As for `C[C@H](NS(=O)(=O)c1cccc(Br)c1)c1ccccc1`, the IC50 was 10.2 µM.

For another assay, the target named is Inward rectifier potassium channel 2 (Mus musculus) (UniProt P35561). The assay is described as above. As to conditions: automated patch clamp, tail current, at 30 µM (top of the series).
Inward rectifier potassium channel 2 (Mus musculus), sequence (P35561 whole entry, looked up): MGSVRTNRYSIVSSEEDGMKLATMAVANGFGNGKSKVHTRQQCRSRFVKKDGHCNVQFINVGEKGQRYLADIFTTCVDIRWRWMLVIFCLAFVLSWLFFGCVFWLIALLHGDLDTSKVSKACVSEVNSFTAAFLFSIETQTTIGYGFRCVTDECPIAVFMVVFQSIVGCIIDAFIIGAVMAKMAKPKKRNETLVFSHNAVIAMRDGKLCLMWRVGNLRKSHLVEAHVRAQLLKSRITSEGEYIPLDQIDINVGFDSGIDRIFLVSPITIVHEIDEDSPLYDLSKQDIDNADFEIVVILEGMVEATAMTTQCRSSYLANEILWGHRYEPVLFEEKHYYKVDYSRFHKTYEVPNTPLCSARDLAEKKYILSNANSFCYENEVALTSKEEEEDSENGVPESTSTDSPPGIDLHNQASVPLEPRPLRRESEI
With `O=S(=O)(c1ccc(F)cc1)N1CCCc2ccccc21`, the “current change, negative = inhibition” value was “inactive”.
